From ChEMBL document CHEMBL3817791, “Discovery of 4-(4-aminopyrazolo[1,5-a][1,3,5]triazin-8-yl)benzamides as novel, highly potent and selective, orally bioavailable inhibitors of Tyrosine Threonine Kinase, TTK” (Bioorg Med Chem Lett, 2016)

T1: Dual specificity protein kinase TTK (Homo sapiens, UniProt P33981)
T1 sequence (P33981 whole entry): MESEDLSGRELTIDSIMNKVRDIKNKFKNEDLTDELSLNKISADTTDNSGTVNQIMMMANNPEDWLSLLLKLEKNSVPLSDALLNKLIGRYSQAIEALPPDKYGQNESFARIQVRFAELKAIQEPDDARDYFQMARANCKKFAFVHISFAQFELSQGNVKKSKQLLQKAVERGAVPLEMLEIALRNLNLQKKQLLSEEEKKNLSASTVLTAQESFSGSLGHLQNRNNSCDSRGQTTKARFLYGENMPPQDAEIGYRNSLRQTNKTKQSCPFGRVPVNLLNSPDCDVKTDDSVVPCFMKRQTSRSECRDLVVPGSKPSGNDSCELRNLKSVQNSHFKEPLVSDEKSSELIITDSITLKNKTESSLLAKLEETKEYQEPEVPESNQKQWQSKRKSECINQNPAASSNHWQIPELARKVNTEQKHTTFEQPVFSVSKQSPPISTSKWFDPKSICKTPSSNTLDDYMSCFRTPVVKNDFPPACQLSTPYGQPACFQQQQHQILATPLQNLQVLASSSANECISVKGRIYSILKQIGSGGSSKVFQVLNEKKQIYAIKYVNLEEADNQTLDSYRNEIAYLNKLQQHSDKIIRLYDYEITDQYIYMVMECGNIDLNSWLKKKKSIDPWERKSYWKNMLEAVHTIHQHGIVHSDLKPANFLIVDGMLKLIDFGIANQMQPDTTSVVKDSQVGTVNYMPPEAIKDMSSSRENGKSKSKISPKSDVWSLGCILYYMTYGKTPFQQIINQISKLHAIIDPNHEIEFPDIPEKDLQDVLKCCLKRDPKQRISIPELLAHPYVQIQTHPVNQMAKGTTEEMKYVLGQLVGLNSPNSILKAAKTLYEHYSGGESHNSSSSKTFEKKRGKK


Key:
[1] = Half life in mouse microsomes; assay type: ADME, Microsome
[2] = Half life in human microsomes; assay type: ADME, Microsome
Cytochrome P450 3A4 = Cytochrome P450 3A4 (Homo sapiens, UniProt P08684); assay: Inhibition of CYP3A4 (unknown origin); assay type: ADME
MDA-MB-231 = assay: Antiproliferative activity against human MDA-MB-231 cells; assay type: functional
[3] = AUC in mouse at 10 mg/kg, po; assay type: ADME, organism-based; conditions: in vivo
[4] = Antiproliferative activity against human HCT116 cells; assay type: functional; conditions: HCT-116
[5] = Half life in rat microsomes; assay type: ADME, Microsome
[6] = molecular target: T1, Dual specificity protein kinase TTK; assay: Inhibition of TTK (unknown origin)
[7] = Antiproliferative activity against human OVCAR3 cells; assay type: functional; conditions: OVCAR-3
[8] = Cmax in mouse at 10 mg/kg, po; assay type: ADME, organism-based; design: dose 10 mg/kg, route oral; conditions: in vivo
MDA-MB-468 = assay: Antiproliferative activity against human MDA-MB-468 cells; assay type: functional
HT-29 = assay: Antiproliferative activity against human HT-29 cells; assay type: functional
[9] = Antiproliferative activity against human PA1 cells; assay type: functional; conditions: PA-1
[10] = molecular target: Rho-associated protein kinase 2 (Homo sapiens) (UniProt O75116); assay: Inhibition of recombinant human N-terminal His6-tagged ROCK2 (11 to 552 residues) expressed in baculovirus infected Sf21 cells at 1 uM by radiometric assay relative to control
[11] = substrate: Cc1cc(-c2cnn3c(NCC4CCOCC4)nc(Oc4ccccc4)nc23)ccc1C(=O)NC1CC1; conditions: Homo sapiens
Description: Inhibition of TTK (unknown origin) assessed as substrate Km(app) at 1.5 nM by double reciprocal plot analysis (Rvb = 8.4 uM)

[12] = substrate: Cc1cc(-c2cnn3c(NCC4CCOCC4)nc(Oc4ccccc4)nc23)ccc1C(=O)NC1CC1; conditions: Homo sapiens; remark: listed apart in the source
Description: Inhibition of TTK (unknown origin) assessed as substrate Km(app) at 7.5 nM by double reciprocal plot analysis (Rvb = 8.4 uM)

[13] = substrate: Cc1cc(-c2cnn3c(NCC4CCOCC4)nc(Oc4ccccc4)nc23)ccc1C(=O)NC1CC1; conditions: Homo sapiens; remark: listed apart in the source
Description: Inhibition of TTK (unknown origin) assessed as substrate Km(app) at 4.5 nM by double reciprocal plot analysis (Rvb = 8.4 uM)

Cytochrome P450 3A4, sequence (P08684 whole entry): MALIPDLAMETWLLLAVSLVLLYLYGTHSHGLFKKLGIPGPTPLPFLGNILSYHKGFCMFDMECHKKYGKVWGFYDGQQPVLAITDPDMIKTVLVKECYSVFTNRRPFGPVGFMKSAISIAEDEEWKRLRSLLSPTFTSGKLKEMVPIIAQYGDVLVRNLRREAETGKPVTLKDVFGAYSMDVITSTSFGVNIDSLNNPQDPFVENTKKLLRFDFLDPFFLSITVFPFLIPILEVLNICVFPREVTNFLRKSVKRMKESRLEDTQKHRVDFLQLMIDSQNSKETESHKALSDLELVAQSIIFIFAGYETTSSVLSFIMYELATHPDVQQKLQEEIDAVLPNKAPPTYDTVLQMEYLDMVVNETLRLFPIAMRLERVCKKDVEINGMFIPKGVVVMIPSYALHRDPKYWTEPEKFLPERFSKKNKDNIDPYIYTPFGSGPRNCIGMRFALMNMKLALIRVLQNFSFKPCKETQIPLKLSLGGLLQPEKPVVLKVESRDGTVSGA
Rho-associated protein kinase 2 (Homo sapiens), sequence (O75116 whole entry, looked up, the tested form may be a part): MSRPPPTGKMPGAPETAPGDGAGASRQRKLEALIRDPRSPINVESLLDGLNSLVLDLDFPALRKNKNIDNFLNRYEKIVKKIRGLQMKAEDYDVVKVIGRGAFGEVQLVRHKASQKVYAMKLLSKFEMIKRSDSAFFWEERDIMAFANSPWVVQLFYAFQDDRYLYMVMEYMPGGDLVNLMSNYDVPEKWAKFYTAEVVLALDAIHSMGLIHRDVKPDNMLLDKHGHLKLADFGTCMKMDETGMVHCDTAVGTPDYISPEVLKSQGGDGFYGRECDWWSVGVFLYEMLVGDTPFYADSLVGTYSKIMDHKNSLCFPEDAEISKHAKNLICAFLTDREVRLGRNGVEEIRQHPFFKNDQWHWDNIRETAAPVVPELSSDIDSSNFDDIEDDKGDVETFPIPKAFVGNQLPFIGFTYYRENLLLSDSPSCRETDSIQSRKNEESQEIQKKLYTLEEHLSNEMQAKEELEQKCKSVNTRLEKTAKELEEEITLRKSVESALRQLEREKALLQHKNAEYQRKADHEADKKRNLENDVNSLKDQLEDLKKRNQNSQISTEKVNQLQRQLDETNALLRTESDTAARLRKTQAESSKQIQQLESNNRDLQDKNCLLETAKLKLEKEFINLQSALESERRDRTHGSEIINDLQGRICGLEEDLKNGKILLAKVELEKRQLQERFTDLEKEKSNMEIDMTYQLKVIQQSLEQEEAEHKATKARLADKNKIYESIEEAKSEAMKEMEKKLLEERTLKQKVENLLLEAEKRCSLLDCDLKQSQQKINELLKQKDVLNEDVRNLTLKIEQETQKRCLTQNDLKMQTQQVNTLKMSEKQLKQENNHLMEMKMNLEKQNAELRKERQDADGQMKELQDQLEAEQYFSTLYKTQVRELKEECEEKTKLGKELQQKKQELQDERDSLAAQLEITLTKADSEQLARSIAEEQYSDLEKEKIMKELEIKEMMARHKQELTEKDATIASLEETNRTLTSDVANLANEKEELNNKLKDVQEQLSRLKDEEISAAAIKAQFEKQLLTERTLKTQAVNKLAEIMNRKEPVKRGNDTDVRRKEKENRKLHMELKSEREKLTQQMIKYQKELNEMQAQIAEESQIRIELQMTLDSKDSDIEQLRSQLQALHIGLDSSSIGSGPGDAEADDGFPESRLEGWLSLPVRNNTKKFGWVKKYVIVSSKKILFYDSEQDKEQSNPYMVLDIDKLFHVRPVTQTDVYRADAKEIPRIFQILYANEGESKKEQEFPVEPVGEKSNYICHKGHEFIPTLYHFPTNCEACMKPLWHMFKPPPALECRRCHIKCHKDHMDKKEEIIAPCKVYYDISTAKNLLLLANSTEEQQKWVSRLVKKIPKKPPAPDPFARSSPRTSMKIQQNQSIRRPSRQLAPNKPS

Row | Molecule | GI50 (MDA-MB-231) [nM] | IC50 [6] [nM] | GI50 [4] [nM] | GI50 [7] [nM] | further results
1 | COCCNc1nc(Oc2ccccc2)nc2c(-c3ccc(C(=O)NC4CC4)cc3)cnn12 |  | 14 |  |  | 
2 | Cc1cc(-c2cnn3c(NCC4CCOCC4)nc(NC4CCCC4)nc23)ccc1C(=O)NC1CC1 | 170 |  | 130 | 480 | half-life [1]: 14 min; half-life [2]: > 60 min; IC50 (Cytochrome P450 3A4): 19000 nM; GI50 (MDA-MB-468): 320 nM; GI50 (HT-29): 84 nM; GI50 [9]: 53 nM; half-life [5]: 11 min
3 | CC(C)NC(=O)c1ccc(-c2cnn3c(NCC4CCOCC4)nc(OC4CCCC4)nc23)cc1 |  | 230 |  |  | 
4 | O=C(N[C@@H](c1ccccn1)C1CC1)c1ccc2[nH]nc(-c3ccc(N4C5CCC4CC(O)C5)cc3)c2c1 (stereo not given in full) |  |  |  |  | inhibition [10]: 50%
5 | CN(c1nc(NCC2CCOCC2)n2ncc(-c3ccc(C(=O)NC4CC4)c(F)c3)c2n1)C1CCCCC1 |  | 15 |  |  | 
6 | O=C(NC1CC1)c1ccc(-c2cnn3c(NCC4CCOCC4)nc(N4CCOCC4)nc23)cc1Cl | 450 | 32 | 440 | 70 | 
7 | Cc1cc(-c2cnn3c(NCC4CCOCC4)nc(NC4CCCC4)nc23)ccc1NC(=O)C1CC1 |  | 2000 |  |  | 
8 | Cc1cc(-c2cnn3c(NCC4CCOCC4)nc(Nc4ccccc4)nc23)ccc1C(=O)NC1CC1 | 1200 | 11 | 690 | 1700 | 
9 | O=C(NC1CC1)c1ccc(-c2cnn3c(NCCN4CCOCC4)nc(Oc4ccccc4)nc23)cc1 | 960 | 24 | 880 | 410 | 
10 | O=C(NC1CC1)c1ccc(-c2cnn3c(NCC4CCOCC4)nc(NC4CCCC4)nc23)cc1 | 690 | 10 | 390 | 1700 | 
11 | CC(C)C(=O)Nc1ccc(-c2cnn3c(NCC4CCOCC4)nc(OC4CCCC4)nc23)cc1 |  | 1700 |  |  | 
12 | Dual specificity protein kinase TTK (Homo sapiens), P33981 (protein) MESEDLSGRELTIDSIMNKVRDIKNKFKNEDLTDELSLNKISADTTDNSGTVNQIMMMANNPEDWLSLLLKLEKNSVPLSDALLNKLIGRYSQAIEALPPDKYGQNESFARIQVRFAELKAIQEPDDARDYFQMARANCKKFAFVHISFAQFELSQGNVKKSKQLLQKAVERGAVPLEMLEIALRNLNLQKKQLLSEEEKKNLSASTVLTAQESFSGSLGHLQNRNNSCDSRGQTTKARFLYGENMPPQDAEIGYRNSLRQTNKTKQSCPFGRVPVNLLNSPDCDVKTDDSVVPCFMKRQTSRSECRDLVVPGSKPSGNDSCELRNLKSVQNSHFKEPLVSDEKSSELIITDSITLKNKTESSLLAKLEETKEYQEPEVPESNQKQWQSKRKSECINQNPAASSNHWQIPELARKVNTEQKHTTFEQPVFSVSKQSPPISTSKWFDPKSICKTPSSNTLDDYMSCFRTPVVKNDFPPACQLSTPYGQPACFQQQQHQILATPLQNLQVLASSSANECISVKGRIYSILKQIGSGGSSKVFQVLNEKKQIYAIKYVNLEEADNQTLDSYRNEIAYLNKLQQHSDKIIRLYDYEITDQYIYMVMECGNIDLNSWLKKKKSIDPWERKSYWKNMLEAVHTIHQHGIVHSDLKPANFLIVDGMLKLIDFGIANQMQPDTTSVVKDSQVGTVNYMPPEAIKDMSSSRENGKSKSKISPKSDVWSLGCILYYMTYGKTPFQQIINQISKLHAIIDPNHEIEFPDIPEKDLQDVLKCCLKRDPKQRISIPELLAHPYVQIQTHPVNQMAKGTTEEMKYVLGQLVGLNSPNSILKAAKTLYEHYSGGESHNSSSSKTFEKKRGKK |  |  |  |  | Km [11]: 17.4 µM; Km [12]: 63.4 µM; Km [13]: 39 µM

Further molecules by falling IC50 [6], results first:

Row | GI50 (MDA-MB-231) [nM] | IC50 [6] [nM] | Molecule | GI50 [4] [nM] | GI50 [7] [nM] | further results
13 | 540 | 9 | Cc1cc(-c2cnn3c(NCC4CCOCC4)nc(NC4CCOCC4)nc23)ccc1C(=O)NC1CC1 | 280 | 780 | 
14 | 1600 | 8.4 | CC(=O)Nc1cccc(Oc2nc(NCC3CCOCC3)n3ncc(-c4ccc(C(=O)NC5CC5)c(C)c4)c3n2)c1 | 1300 | 1200 | 
15 | 1400 | 7 | O=C(NC1CC1)c1ccc(-c2cnn3c(NCC4CCOCC4)nc(NC4CCCC4)nc23)cc1F | 850 | 1700 | 
16 | 350 | 4.9 | O=C(NC1CC1)c1ccc(-c2cnn3c(NCC4CCOCC4)nc(Oc4ccccc4)nc23)cc1 | 200 | 910 | 
17 | 270 | 2.6 | Cc1cc(-c2cnn3c(NCC4CCOCC4)nc(NC4CCCCC4)nc23)ccc1C(=O)NC1CC1 | 170 | 470 | 
18 | 230 | 2.3 | Cc1cc(-c2cnn3c(NCC4CCOCC4)nc(OC4CCCC4)nc23)ccc1C(=O)NC1CC1 | 160 | 590 | 
19 | 40 | 2.2 | Cc1cc(-c2cnn3c(NCCN4CCOCC4)nc(Oc4cccc(F)c4F)nc23)ccc1C(=O)NC1CC1 | 14 | 170 | GI50 (MDA-MB-468): 150 nM; GI50 (HT-29): 21 nM; GI50 [9]: 17 nM
20 | 230 | 1.7 | O=C(NC1CC1)c1ccc(-c2cnn3c(NCC4CCOCC4)nc(Oc4ccccc4)nc23)cc1Cl | 160 | 400 | 
21 | 12 | 0.4 | Cc1cc(-c2cnn3c(NCC4CCOCC4)nc(Oc4cccc(F)c4F)nc23)ccc1C(=O)NC1CC1 | 9 | 37 | half-life [1]: 28 min; half-life [2]: > 60 min; IC50 (Cytochrome P450 3A4): > 20000 nM; AUC [3]: 4000 ng·h/mL; half-life [5]: 40 min; Cmax [8]: 1600 ng/mL
